Assay [1] deals with T1, Potassium voltage-gated channel subfamily B member 1 (Homo sapiens, UniProt Q14721).
T1 sequence (Q14721 whole entry): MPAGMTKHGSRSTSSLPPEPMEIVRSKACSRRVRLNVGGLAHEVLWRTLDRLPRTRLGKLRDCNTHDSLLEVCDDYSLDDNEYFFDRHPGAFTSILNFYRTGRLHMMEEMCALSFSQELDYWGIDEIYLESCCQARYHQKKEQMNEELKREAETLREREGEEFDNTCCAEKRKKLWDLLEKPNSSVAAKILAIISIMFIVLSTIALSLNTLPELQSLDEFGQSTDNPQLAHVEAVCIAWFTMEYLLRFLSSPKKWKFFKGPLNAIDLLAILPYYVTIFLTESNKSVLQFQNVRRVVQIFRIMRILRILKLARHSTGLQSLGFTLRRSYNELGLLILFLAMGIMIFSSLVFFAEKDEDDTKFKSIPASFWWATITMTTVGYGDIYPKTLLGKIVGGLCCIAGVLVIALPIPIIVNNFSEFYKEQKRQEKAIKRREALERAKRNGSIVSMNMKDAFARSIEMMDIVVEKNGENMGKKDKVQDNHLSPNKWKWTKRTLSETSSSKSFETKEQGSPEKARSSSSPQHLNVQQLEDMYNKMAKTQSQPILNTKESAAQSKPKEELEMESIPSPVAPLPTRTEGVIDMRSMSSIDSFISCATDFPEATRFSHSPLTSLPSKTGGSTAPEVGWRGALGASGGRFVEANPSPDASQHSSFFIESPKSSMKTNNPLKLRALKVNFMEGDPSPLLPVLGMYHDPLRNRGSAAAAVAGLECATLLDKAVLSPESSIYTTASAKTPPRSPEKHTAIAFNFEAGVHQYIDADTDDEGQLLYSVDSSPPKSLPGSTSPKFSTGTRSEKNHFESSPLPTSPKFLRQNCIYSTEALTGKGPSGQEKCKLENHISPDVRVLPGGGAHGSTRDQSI
The assay is described as follows: Inhibition of human KV2.1 stably expressed in HEK293 cells by whole cell patch-clamp assay. The assay is classed as cell-based.

The target of assay [2] is T2, Potassium voltage-gated channel subfamily B member 1 (Homo sapiens) (UniProt Q14721).
T2 sequence (whole entry): T1 sequence (Q14721 whole entry)
Kind of assay: Inhibition of human KV2.1 stably expressed in HEK293 cells at 1 uM by whole cell patch-clamp assay. In kind it is cell-based. A general note: Patch clamp records ionic current or voltage across a cell membrane.

For assay [3], the target named is Voltage-gated inwardly rectifying potassium channel KCNH2 (Homo sapiens, UniProt Q12809). Kind of assay: Inhibition of human ERG by whole cell patch-clamp assay. The assay is classed as toxicity.
Chain of Voltage-gated inwardly rectifying potassium channel KCNH2 (Q12809 whole entry): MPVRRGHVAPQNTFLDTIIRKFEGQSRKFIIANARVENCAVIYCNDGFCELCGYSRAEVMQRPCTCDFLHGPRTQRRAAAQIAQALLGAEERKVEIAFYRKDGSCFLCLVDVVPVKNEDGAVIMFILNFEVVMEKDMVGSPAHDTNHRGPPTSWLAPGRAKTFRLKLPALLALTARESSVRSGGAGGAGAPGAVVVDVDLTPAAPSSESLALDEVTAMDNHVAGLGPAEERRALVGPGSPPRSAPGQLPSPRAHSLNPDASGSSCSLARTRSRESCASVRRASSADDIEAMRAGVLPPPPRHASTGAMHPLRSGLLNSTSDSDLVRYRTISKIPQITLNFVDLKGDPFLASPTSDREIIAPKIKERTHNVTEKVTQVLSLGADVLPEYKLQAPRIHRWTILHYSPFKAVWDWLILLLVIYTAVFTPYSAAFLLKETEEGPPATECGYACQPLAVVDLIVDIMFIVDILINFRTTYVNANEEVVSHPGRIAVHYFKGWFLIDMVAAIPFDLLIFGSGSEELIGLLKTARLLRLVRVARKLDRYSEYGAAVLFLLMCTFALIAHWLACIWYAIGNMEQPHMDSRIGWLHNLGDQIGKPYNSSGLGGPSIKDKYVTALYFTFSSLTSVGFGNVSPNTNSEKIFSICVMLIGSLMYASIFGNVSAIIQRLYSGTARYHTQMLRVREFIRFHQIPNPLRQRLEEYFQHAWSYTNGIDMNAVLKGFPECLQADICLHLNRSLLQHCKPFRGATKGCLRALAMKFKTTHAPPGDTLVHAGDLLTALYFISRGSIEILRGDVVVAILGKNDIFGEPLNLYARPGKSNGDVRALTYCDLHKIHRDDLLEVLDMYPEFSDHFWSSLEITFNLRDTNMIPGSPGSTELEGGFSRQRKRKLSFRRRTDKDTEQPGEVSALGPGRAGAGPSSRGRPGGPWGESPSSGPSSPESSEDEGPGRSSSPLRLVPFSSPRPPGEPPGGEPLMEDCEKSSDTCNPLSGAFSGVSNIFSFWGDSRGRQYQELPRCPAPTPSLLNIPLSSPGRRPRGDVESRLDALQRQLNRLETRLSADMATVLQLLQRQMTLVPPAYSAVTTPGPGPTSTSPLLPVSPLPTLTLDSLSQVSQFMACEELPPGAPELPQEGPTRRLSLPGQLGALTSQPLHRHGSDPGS
Assay [4] concerns the target Potassium voltage-gated channel subfamily A member 5 (Homo sapiens, UniProt P22460). The assay is described as follows: Inhibition of KV1.5 (unknown origin) by whole cell patch-clamp assay.
Assay [5] addresses T3, Voltage-gated potassium channel KCNC1 (Homo sapiens, UniProt P48547).
T3 sequence (P48547 whole entry): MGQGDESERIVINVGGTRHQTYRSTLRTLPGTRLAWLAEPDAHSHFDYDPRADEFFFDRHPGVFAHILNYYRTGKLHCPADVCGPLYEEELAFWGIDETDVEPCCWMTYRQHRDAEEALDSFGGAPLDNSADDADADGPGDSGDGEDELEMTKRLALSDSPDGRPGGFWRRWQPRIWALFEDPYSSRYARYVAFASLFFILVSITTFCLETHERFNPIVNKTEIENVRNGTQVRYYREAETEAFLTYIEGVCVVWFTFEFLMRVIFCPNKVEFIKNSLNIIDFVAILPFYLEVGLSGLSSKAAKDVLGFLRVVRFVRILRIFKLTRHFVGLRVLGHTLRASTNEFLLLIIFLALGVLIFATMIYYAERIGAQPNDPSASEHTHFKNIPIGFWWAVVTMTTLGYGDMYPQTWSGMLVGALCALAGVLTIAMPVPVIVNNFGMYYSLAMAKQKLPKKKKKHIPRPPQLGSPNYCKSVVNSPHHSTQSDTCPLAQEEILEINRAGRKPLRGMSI
The assay is described as follows: Inhibition of KV3.1 (unknown origin) by whole cell patch-clamp assay.

One may read the IC50 as the concentration that gives 50% inhibition. High values mean a need for much substance, low ones inhibition by little substance.

Activity calls are given as the source filed them. The calls are words filed in the database; no cut-off is given here. A value given as a limit tells only on which side of the number the result lay.

Chain of Potassium voltage-gated channel subfamily A member 5 (P22460 whole entry): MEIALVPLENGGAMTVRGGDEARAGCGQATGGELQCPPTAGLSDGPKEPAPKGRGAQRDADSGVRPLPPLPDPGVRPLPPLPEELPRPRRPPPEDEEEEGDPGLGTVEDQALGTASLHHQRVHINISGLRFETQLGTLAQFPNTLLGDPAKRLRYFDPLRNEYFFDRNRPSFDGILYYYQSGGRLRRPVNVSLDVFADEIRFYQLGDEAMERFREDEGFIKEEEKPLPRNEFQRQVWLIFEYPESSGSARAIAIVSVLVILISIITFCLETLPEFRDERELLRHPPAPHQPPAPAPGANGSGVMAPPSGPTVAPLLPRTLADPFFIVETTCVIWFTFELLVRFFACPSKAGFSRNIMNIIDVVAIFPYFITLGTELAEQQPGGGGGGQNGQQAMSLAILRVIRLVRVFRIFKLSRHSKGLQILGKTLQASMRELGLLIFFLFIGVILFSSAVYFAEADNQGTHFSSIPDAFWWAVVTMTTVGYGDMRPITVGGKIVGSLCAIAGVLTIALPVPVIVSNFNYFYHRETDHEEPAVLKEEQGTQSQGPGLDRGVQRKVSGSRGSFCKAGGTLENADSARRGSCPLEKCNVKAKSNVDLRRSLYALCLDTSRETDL

With `COc1ccc(NC(=O)C(C)C)cc1C(=O)NC(C)c1cccc(-c2nccs2)c1` (stereo not drawn), in assay [1], the IC50 turned out to be 3000 nM.

`CCOc1ccc(NC(=O)C2CCC2)cc1C(=O)NC(C)c1cccc(-c2nccs2)c1` (stereo not drawn) came in with an IC50 in assay [1] of 550 nM.

In assay [1], `CCOc1ccc(NC(=O)C(C)C)cc1C(=O)NC(C)c1ccnc(NC)n1` (stereo not drawn) gave an IC50 above 1000 nM.

With `CCOc1ccc(NC(=O)C(C)C)cc1C(=O)NCc1cccc(-c2ccccn2)c1`, the IC50 in assay [1] was above 1000 nM.

Turning to `CCOc1ccc(C(=O)NC(C)C)cc1C(=O)NCc1cccc(-c2nccs2)c1`, the inhibition entry in assay [2] was “inactive”.

Take `CCOc1ccc(NC(=O)C(C)C)cc1C(=O)NC(C)c1cccc(N2CCCC2)c1` (stereo not drawn): in assay [1], the IC50 is around 1000 nM.

Consider `CCOc1ccc(NC(=O)C(C)C)cc1C(=O)NC(C)c1cccc(F)n1` (stereo not drawn), for which the IC50 in assay [1] was 320 nM.

In turn, `CCOc1ccc(NC(=O)C(C)C)cc1C(=O)NCc1cccc(N2CCCC2)c1` came in with an IC50 in assay [1] of around 1000 nM.

For the compound `CC(C)C(=O)Nc1ccc(N(C)C)c(C(=O)NCc2cccc(-c3nccs3)c2)c1`, the IC50 is 390 nM in assay [1], 30000 nM in assay [3], 11000 nM in assay [4] and above 30000 nM in assay [5].

`CCOC(=O)Nc1ccc(OCC)c(C(=O)NC(C)c2cccc(-c3nccs3)c2)c1` (stereo not drawn) yielded an IC50 in assay [1] of 1100 nM.

In turn, `CCOc1ccc(NC(=O)C(C)C)cc1C(=O)NC(C)c1cncc(C)n1` (stereo not drawn) returned an IC50 in assay [1] above 1000 nM.

As to `CC(C)COc1ccc(NC(=O)C(C)C)cc1C(=O)NC(C)c1cccc(-c2nccs2)c1` (stereo not drawn), the IC50 in assay [1] was above 1000 nM.

In assay [1], `CCOc1ccc(NC(=O)C(C)C)cc1C(=O)NC(C)c1ccnc(OC)c1` (stereo not drawn) registered an IC50 of 430 nM.

In turn, `CCOc1ccc(NC(=O)C(C)C)cc1C(=O)NC(C)c1ccnc(OC)n1` (stereo not drawn) came in with an IC50 in assay [1] of around 1000 nM.

With `CC(C)C(=O)Nc1cccc(C(=O)NC(C)c2cccc(-c3nccs3)c2)c1` (stereo not drawn), in assay [1], the IC50 was above 1000 nM.

Turning to `CCOc1ccc(NC(=O)C(C)C)cc1C(=O)NC(C)c1cccc(C)c1` (stereo not drawn), the IC50 was 80 nM in assay [1], 30000 nM in assay [3], 5700 nM in assay [4] and above 30000 nM in assay [5].

In turn, `CCOc1ccc(NC(=O)C(C)C)cc1C(=O)NCc1cccc(OC(F)(F)F)c1` showed a half-maximal inhibitory concentration (IC50) in assay [1] of 337 nM.

As for `CCOc1ccc(NC(=O)C(C)C)cc1C(=O)N(C)Cc1cccc(-c2nccs2)c1`, the inhibition result in assay [2] was “inactive”.

Take `CCOc1ccc(NC(=O)c2ccccc2)cc1C(=O)NCc1cccc(-c2nccs2)c1`: the inhibition result in assay [2] was “inactive”.

In assay [1], `CCCOc1ccc(NC(=O)C(C)C)cc1C(=O)NC(C)c1cccc(-c2nccs2)c1` (stereo not drawn) gave an IC50 of 590 nM.

Turning to `CC(C)C(=O)Nc1ccc(N(C)C)c(C(=O)NCc2ccccn2)c1`, the IC50 in assay [1] is 540 nM; in assay [3] it was 30000 nM; in assay [4], above 30000 nM; in assay [5] it was above 30000 nM.

As to `CCOc1ccc(NC(=O)OC(C)C)cc1C(=O)NC(C)c1cccc(-c2nccs2)c1` (stereo not drawn), it took 1000 nM to reach half-maximal inhibition in assay [1] (IC50).

In the case of `CCOc1ccc(NC(=O)C(C)C)cc1C(=O)NCc1cccc(Br)c1`, the IC50 in assay [1] was around 1000 nM.

Take `CCOc1ccc(NS(=O)(=O)CC)cc1C(=O)NC(C)c1cccc(-c2nccs2)c1` (stereo not drawn): the IC50 in assay [1] came out at 10000 nM.

In assay [1], `CCOc1ccc(NC(=O)C2CC2)cc1C(=O)NC(C)c1cccc(-c2nccs2)c1` (stereo not drawn) returned an IC50 of 1100 nM.

The compound `CC(C)C(=O)Nc1ccc(N(C)C)c(C(=O)NCc2cccc(-c3ccco3)c2)c1` returned an IC50 in assay [1] above 1000 nM.

As for `CCOc1ccc(NC(C)=O)cc1C(=O)NC(C)c1cccc(-c2nccs2)c1` (stereo not drawn), in assay [1], the IC50 was around 10000 nM.

Consider `CCOc1ccc(NC(=O)C(C)C)cc1C(=O)NC(C)c1cccc(OC(F)F)c1` (stereo not drawn), for which the IC50 came out at 250 nM in assay [1], 10000 nM in assay [3] and 10000 nM in assay [4].

For `CC(C)C(=O)Nc1ccc(OCC(F)(F)F)c(C(=O)NCc2cccc(-c3nccs3)c2)c1`, the IC50 in assay [1] was above 1000 nM.

In assay [1], `CCOc1ccc(NC(=O)C(C)C)cc1C(=O)NC(C)c1cccc(Br)n1` (stereo not drawn) showed an IC50 of around 1000 nM.

`CC(C)C(=O)Nc1ccc(N(C)C)c(C(=O)NCc2cccc3ccccc23)c1` returned an IC50 in assay [1] above 1000 nM.

Take `CCOc1ccc(NC(=O)C(C)C)cc1C(=O)NC(C)c1cccc(Cl)n1` (stereo not drawn): the IC50 in assay [1] is around 1000 nM.

`CCOc1ccc(NC(=O)C(C)C)cc1C(=O)NC(C)c1ccccc1` (stereo not drawn): in assay [1], the IC50 is around 1000 nM.

With `CCOc1ccc(NC(=O)C(C)C)cc1C(=O)NCc1cccc(OC(F)F)c1`, the IC50 was 300 nM in assay [1], 30000 nM in assay [3], 14200 nM in assay [4] and above 30000 nM in assay [5].

Compound `CCOc1ccc(NC(=O)C(F)(F)F)cc1C(=O)NC(C)c1cccc(-c2nccs2)c1` (stereo not drawn) gave an IC50 in assay [1] above 10000 nM.

`CCOc1ccc(NC(=O)C(C)C)cc1C(=O)NC(C)c1ccnc(Cl)n1` (stereo not drawn) displayed an IC50 in assay [1] of around 1000 nM.

In assay [1], `CCOc1ccc(NC(=O)C2CCCC2)cc1C(=O)NC(C)c1cccc(-c2nccs2)c1` (stereo not drawn) displayed an IC50 above 10000 nM.

With `CCOc1ccc(N(C)C(=O)C(C)C)cc1C(=O)NCc1cccc(-c2nccs2)c1`, the inhibition entry in assay [2] was “inactive”.

Turning to `CCOc1ccc(NC(=O)CC)cc1C(=O)NC(C)c1cccc(-c2nccs2)c1` (stereo not drawn), in assay [1], the IC50 was around 10000 nM.

In assay [1], `CC(C)Oc1ccc(NC(=O)C(C)C)cc1C(=O)NC(C)c1cccc(-c2nccs2)c1` (stereo not drawn) came in with an IC50 above 1000 nM.

`CC(C)C(=O)Nc1ccc(N(C)C)c(C(=O)NCc2cccc(-c3ccccc3)c2)c1` registered an IC50 in assay [1] of 3550 nM.

In assay [1], `CC(C)C(=O)Nc1ccc(N(C)C)c(C(=O)NC(C)c2ccccc2)c1` (racemic) registered an IC50 of 480 nM.

The compound `CCOc1ccc(NC(=O)C(C)C)cc1C(=O)NC(C)c1cccc(N2CCC2)c1` (stereo not drawn) displayed an IC50 in assay [1] of 320 nM.

On to `CCOc1ccc(N2CCCC2=O)cc1C(=O)NCc1cccc(-c2nccs2)c1`, for which the inhibition result in assay [2] was “inactive”.

As for `CCOc1ccc(NC(=O)C(C)C)cc1C(=O)NC(C)c1cccc(-c2nccs2)c1` (stereo not drawn), the IC50 in assay [1] is 430 nM; in assay [3] it was above 30000 nM; in assay [4], 10000 nM; in assay [5], above 30000 nM.

The compound `CCOc1ccc(NC(=O)C(C)C)cc1C(=O)NCc1cccc(-c2nccs2)c1` yielded an IC50 in assay [1] of 530 nM.

In assay [1], `CC(C)C(=O)Nc1ccc(OCC(F)(F)F)c(C(=O)NC(C)c2cccc(-c3nccs3)c2)c1` (stereo not drawn) yielded a 50% inhibitory concentration (IC50) above 1000 nM.

Take `CCOc1ccc(NC(=O)C(C)C)cc1C(=O)NC(C)c1ccnc(C)n1` (stereo not drawn): the IC50 in assay [1] is around 1000 nM.

Consider `CC(C)C(=O)Nc1ccc(N(C)C)c(C(=O)NCc2cccnc2)c1`, for which the IC50 in assay [1] is above 1000 nM.

In turn, `CCOc1ccc(NC(=O)C(C)C)cc1C(=O)NC(C)c1cccc(-c2ncccn2)c1` (stereo not drawn) came in with a concentration for half-maximal inhibition (IC50) in assay [1] of 660 nM.

Regarding `CC(C)C(=O)Nc1ccc(N(C)C)c(C(=O)NCc2ccncc2)c1`, the inhibition entry in assay [2] is “inactive”.

As for `CCOc1ccc(NC(=O)C(C)C)cc1C(=O)NC(C)c1cccc(Br)c1` (stereo not drawn), the IC50 in assay [1] was around 1000 nM.

Turning to `CCOc1ccc(NC(=O)C(C)C)cc1C(=O)NC(C)c1cccc(OC)n1` (stereo not drawn), the IC50 in assay [1] was 50 nM; in assay [3] it was above 30000 nM; in assay [4], 10000 nM.

As to `CCOc1ccc(NC(=O)C(C)C)cc1C(=O)NC(C)c1cccc(OC)c1` (stereo not drawn), the IC50 in assay [1] amounted to 370 nM.
